Experimental data reported in US20240408222A1, “COMPOUNDS, PHARMACEUTICAL COMPOSITIONS, AND METHODS FOR THE TREATMENT, PREVENTION, OR MANAGEMENT OF HYPERPRO[…]” (VINCERX PHARMA GMBH, priority 2021, published 2024).
pIC50: −log10 of the molar value.

Assays:
rec. human legumain = rec. human legumain (Homo sapiens, UniProt Q99538); details: for metabolite formation after incubation with legumain: 16 h incubation, 37° C., pH 5,0; for metabolite formation without addition of active legumain: control without active legumain
Method: 10 μg rec. human legumain are added to 100 μL activation buffer (50 mM sodium acetate buffer/100 mM NaCl, pH 4,0) and incubated for 2 h at 37° C., before 4.9 mL assay buffer (50 mM MES buffer/250 mM NaCl, pH 5,0) is added (final concentration of rec. hum. legumain: 2 μg/mL). For the selected sample, activated legumain is added to the compound solution. Then the solution is incubated at 37° C. At 16 h-a 50 μL sample is taken and added to 100 μL ice-cold methanol. For the untreated control (0 h) ice-cold methanol is pipetted in a tube before the legumain and compound solution are added. Samples can be stored at −20° C. or analyzed directly by HPLC or LCMS. The metabolite and the parent compound (educt) are measured.
Samples from enzymatic assays are added to the double volume of methanol and incubated for at least 30 min at −20° C. to precipitate proteins. Samples are then centrifuged for 10 min, 16100×g at 4° C. and analyzed by RP-HPLC using a gradient (PLRP-S-A1 79.0% PLRP-S—B1 21.0%, duration 24 min). After the centrifugation the supernatant is collected, calibration curves are obtained using the respective compound and the corresponding metabolite solution. A 10 mM DMSO stock solution is diluted with Methanol to achieve the chosen end concentration.

HT29 [1] = assay: Cytotoxicity in vitro in presence/absence of legumain; assay type: cell-based, human
SUM149 [2] = assay: Cytotoxicity assay (Version 2, automated, AC50) with/without neutrophil elastase; assay type: cell-based; details: Version 2, activity concentration at −50%
In short: (§1)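 Paired treatment sets, one containing 10 nM elastase, received test compound over 10^−5–10^−13 M for 72 h at 37 °C. Following 4 h MTT and overnight detergent lysis, absorbance at 570 nm was scaled from −100% (no cells) to 0% (DMSO) and Hill-fitted for AC50.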

NCI H292 [3] = assay: as above; assay type: cell-based, human; details: Version 2, activity concentration at −50%
In short: as §1

HT29 [4] = assay: as above; assay type: cell-based, human; details: Version 2, activity concentration at −50%
In short: as §1

786-O = assay: as above; assay type: cell-based, human; details: Version 2, activity concentration at −50%
In short: as §1

SUM149 [5] = assay: Cytotoxicity in vitro in presence/absence of legumain; assay type: cell-based
NCI H292 [6] = assay: as above; assay type: cell-based, human
SUM149 [7] = assay: Cytotoxicity in vitro in presence/absence of cathepsin B; assay type: cell-based
HT29 [8] = assay: as above; assay type: cell-based, human
cathepsin B = cathepsin B (Homo sapiens, UniProt P07858); assay: Biochemical cathepsin B cleavage assay (metabolite detection by RP-HPLC)
Method: Incubation of samples starts with addition of cathepsin B solution (2.5 μg in […] 50 mM sodium phosphate buffer, pH 6.0/2 mM DTT). The incubation is performed at 40° C., and after 16 h incubation a 40 μL sample is taken and added to 80 μL ice-cold methanol. […] The metabolite (product) and the parent compound (educt) is measured.

NCI H292 [9] = assay: Cytotoxicity in vitro in presence/absence of cathepsin B; assay type: cell-based, human
in vivo = details: male, rat, plasma, iv
Method: Male rats (n=3) were given an intravenous 0.5 or 2.0 mg/kg bolus dose of test article dissolved in plasma with 1% DMSO and 2% ethanol (C30 only). Serial blood samples were collected up to 24 hours post-dose. Plasma was harvested from blood samples and stored frozen until sample analysis. Test article plasma concentrations were analyzed by LC/MS/MS.

[10] = SUM149, with (+) neutrophil elastase
[11] = SUM149, without (−) neutrophil elastase
[12] = NCI H292, with (+) neutrophil elastase
[13] = NCI H292, without (−) neutrophil elastase
[14] = HT29, with (+) neutrophil elastase
[15] = HT29, without (−) neutrophil elastase
[16] = without (−) neutrophil elastase

Sequence of rec. human legumain (Q99538 18-323 limits assumed): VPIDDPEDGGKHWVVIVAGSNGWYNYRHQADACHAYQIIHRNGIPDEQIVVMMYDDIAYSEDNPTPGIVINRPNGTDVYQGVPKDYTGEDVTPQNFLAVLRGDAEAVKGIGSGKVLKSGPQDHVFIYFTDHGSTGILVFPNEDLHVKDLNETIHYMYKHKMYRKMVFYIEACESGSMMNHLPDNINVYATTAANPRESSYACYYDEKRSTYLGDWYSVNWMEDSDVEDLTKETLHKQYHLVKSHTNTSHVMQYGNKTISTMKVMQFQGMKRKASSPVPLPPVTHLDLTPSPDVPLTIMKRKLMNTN

Compound	metabolite formation after incubation with legumain (rec. human legumain)	metabolite formation without addition of active legumain (rec. human legumain)	pIC50 (HT29 [1]; HT29, with (+) legumain)	pIC50 (HT29 [1]; HT29, without (−) legumain)	AC50 (SUM149 [2]; [10]) [nM]	AC50 (SUM149 [2]; [11]) [nM]	AC50 (NCI H292 [3]; [12]) [nM]	AC50 (NCI H292 [3]; [13]) [nM]	AC50 (HT29 [4]; [14]) [nM]	AC50 (HT29 [4]; [15]) [nM]	AC50 (786-O; with (+) neutrophil elastase) [nM]	AC50 (786-O; [16]) [nM]	pIC50 (SUM149 [5]; SUM149, with (+) legumain)	pIC50 (SUM149 [5]; SUM149, without (−) legumain)	pIC50 (NCI H292 [6]; NCI H292, with (+) legumain)	pIC50 (NCI H292 [6]; NCI H292, without (−) legumain)	other results
CCCNC(=O)Nc1cccc(S(=O)(=O)Nc2cccc([C@@H](CC(=O)[O-])NC(=O)Nc3ccc(NC(=O)NCCOCCOCCOCCC(=O)N[C@@H](C)C(=O)N(C)[C@@H](C)C(=O)N[C@@H](CC(=O)N=[S@@](C)(=O)Cc4cc5cc(c4)OCCCCOc4cc(F)ccc4-c4nc(ncc4F)N5)C(N)=O)cc3)c2)c1.[Na+] [Compound 8, sodium N-{14-[4-({[(1R)-2-carboxylato-1-{3-[({3-[(propylcarbamoyl)amino]phenyl}sulfonyl)amino]phenyl}ethyl]carbamoyl}amino)anilino]-14-oxo-4,7,10-trioxa-13-azatetradecan-1-oyl}-L-alanyl-N-methyl-L-alanyl-N′—[(S)-{[16,20-difluoro-2,3,4,5-tetrahydro-12H-13,17-(azeno)-11,7-(metheno)-1,6,12,14-benzodioxadiazacyclononadecin-9-yl]methyl}(methyl)oxido-lambda^6-sulfanylidene]-L-aspartamide]	complete metabolite formation	no metabolite formation is detected	7.00 to 7.96	7.00 to 7.96	100 to 1000	> 1000	100 to 1000	100 to 1000	11 to 100	> 1000	100 to 1000	> 1000	7.00 to 7.96	7.00 to 7.96	8.00 to 8.96	7.00 to 7.96	–
CCCNC(=O)Nc1cccc(S(=O)(=O)Nc2cccc([C@@H](CC(=O)[O-])NC(=O)Nc3ccc(NC(=O)NCCOCCOCCOCCC(=O)N[C@H](C(=O)N[C@@H](CCCNC(N)=O)C(=O)N=[S@@](C)(=O)Cc4cc5cc(c4)OCCCCOc4cc(F)ccc4-c4nc(ncc4F)N5)C(C)C)cc3)c2)c1.[Na+] [Compound 7, sodium N-{14-[4-({[(1R)-2-carboxylato-1-{3-[({3-[(propylcarbamoyl)amino]phenyl}sulfonyl)amino]phenyl}ethyl]carbamoyl}amino)anilino]-14-oxo-4,7,10-trioxa-13-azatetradecan-1-oyl}-L-valyl-N^5-carbamoyl-N—[(S)-{[16,20-difluoro-2,3,4,5-tetrahydro-12H-13,17-(azeno)-11,7-(metheno)-1,6,12,14-benzodioxadiazacyclononadecin-9-yl]methyl}(methyl)oxido-lambda^6-sulfanylidene]-L-ornithinamide]	–	–	–	–	11 to 100	11 to 100	100 to 1000	100 to 1000	11 to 100	11 to 100	11 to 100	11 to 100	–	–	–	–	pIC50 (SUM149 [7]; SUM149, with (+) cathepsin): 7.00 to 7.96; pIC50 (SUM149 [7]; SUM149, without (−) cathepsin): < 7.00; pIC50 (HT29 [8]; HT29, with (+) cathepsin): < 7.00; pIC50 (HT29 [8]; HT29, without (−) cathepsin): < 7.00; metabolite detected after incubation with cathepsin B (cathepsin B; 16 h incubation, 40° C., pH 6.0): 16%; metabolite formation without addition of active cathepsin B (cathepsin B; control without active cathepsin B): no metabolite formation is detected; pIC50 (NCI H292 [9]; NCI H292, with (+) cathepsin): 7.00 to 7.96; pIC50 (NCI H292 [9]; NCI H292, without (−) cathepsin): 7.00 to 7.96
Sodium N-{14-[4-({[(1S)-2-carboxylato-1-{3-[({3-[(propylcarbamoyl)amino]phenyl}sulfonyl) amino]phenyl}ethyl]carbamoyl}amino)anilino]-14-oxo-4,7,10-trioxa-13-azatetradecan-1-oyl}-L-alanyl-N-methyl-L-alanyl-N′—[(S)-{[16,20-difluoro-2,3,4,5-tetrahydro-12H-13,17-(azeno)-11,7-(metheno)-1,6,12,14-benzodioxadiazacyclononadecin-9-yl]methyl} (methyl)oxido-lambda^6-sulfanylidene]-L-aspartamide [Compound 13]	complete metabolite formation	no metabolite formation is detected	7.00 to 7.96	7.00 to 7.96	11 to 100	> 1000	100 to 1000	100 to 1000	11 to 100	> 1000	11 to 100	> 1000	7.00 to 7.96	7.00 to 7.96	7.00 to 7.96	7.00 to 7.96	–
CCCNC(=O)Nc1cccc(S(=O)(=O)Nc2cccc([C@@H](CC(=O)O)NC(=O)Nc3ccc(NC(=O)NCCOCCOCCOCCC(=O)N[C@@H](CC(=O)O)C(=O)N4CCC[C@H]4C(=O)N[C@H](C(=O)N=[S@](C)(=O)Cc4cc5cc(c4)O[C@H](C)CCOc4cc(F)ccc4-c4nc(ncc4F)N5)C(C)C)cc3)c2)c1 (relative stereo) [Compound 48]	–	–	–	–	–	–	–	–	–	–	–	–	–	–	–	–	AUC (in vivo; 0.5 mg/kg): 1000 to 10000 ng·h/mL; Vd (in vivo; 0.5 mg/kg): 0.03 to 0.1 L/kg; clearance (in vivo; 0.5 mg/kg): > 5 mL/min/kg; half-life (in vivo; 0.5 mg/kg): 0.1 to 1 h
CCCNC(=O)Nc1cccc(S(=O)(=O)Nc2cccc([C@H](CC(=O)O)NC(=O)Nc3ccc(NC(=O)NCCOCCOCCOCCC(=O)N[C@@H](CCCCNC(=O)CCOCCOCCOCCNC(=O)Nc4ccc(NC(=O)N[C@H](CC(=O)O)c5cccc(NS(=O)(=O)c6cccc(NC(=O)NCCC)c6)c5)cc4)C(=O)NCCOCCOCCOCCC(=O)N[C@@H](CC(=O)O)C(=O)N4CCC[C@H]4C(=O)N[C@H](C(=O)N=S(C)(=O)Cc4cc5nc(c4)OCCCOc4cc(F)ccc4-c4cc(ncc4F)N5)C(C)C)cc3)c2)c1 (relative stereo) [Compound 33]	–	–	–	–	–	–	–	–	–	–	–	–	–	–	–	–	AUC (in vivo; 2 mg/kg): 50000 to 150000 ng·h/mL; Vd (in vivo; 2 mg/kg): > 0.1 L/kg; clearance (in vivo; 2 mg/kg): 0.5 to 5 mL/min/kg; half-life (in vivo; 2 mg/kg): 10 to 20 h
